# Measured values from US20240148701A1, “WOULD HEALING METHODS” (The University of Sydney, priority 2021, published 2024).
# Entries after “also recorded” stand apart in the source; their conditions may differ.
# Tests used:
# β3-AR = β3-AR (Homo sapiens, UniProt P13945); conditions: cited from earlier work; for agonist activity at β3-AR: β1- and β2-AR antagonists; for affinity and potency at β3-AR: selective agonists
# HUVECs [1] = assay: Cell migration by scratch assay in HUVECs (CL 316,243); format: cell-based, human; conditions: L-NAME 300 μmol/L with CL 316,243
# HUVECs [2] = assay: Tubule formation in HUVECs on reduced growth factor extracellular matrix; format: cell-based, human; conditions: L-NAME 300 μmol/L with CL 316,243
# Method: (§1) Human umbilical vein endothelial cells (HUVECs; Lonza C2519AS, pooled source, Australia) were grown using standard cell culture conditions in endothelial cell growth medium (EGM Plus®, containing 2% fetal bovine serum, Lonza, Australia). All cells were regularly confirmed to be mycoplasma negative. Two different pooled source cell lines were used in experiments and all were used within passages 2-4. Human adult dermal microvascular endothelial cells were also obtained from Lonza (CC-2543, Lonza Australia) and cultured as above but using endothelial growth medium 2-MV bulletkit. Endothelial colony forming cells (ECFCs) were derived from the peripheral blood of participants in the BioHEART study. This registered study (ACTRN12618001322224) complies with the Declaration of Helsinki and the study protocol and design has been approved by the Northern Sydney Local Health District Human Research Ethics Committee (HREC/17/HAWKE/343). […]
# (§2) Once they were ˜70% confluent, cells were re-suspended in diluted EGM Plus® (1:3) and plated on reduced-growth factor extracellular matrix (15 mg/ml, Cultrex, Trevigen, USA) at a density of 1.5×10^4 cells/cm^2. […] Cells were incubated in an EVOS FL Auto Imaging system for 16 hours and tubule formation recorded every hour. Optimal tube formation occurred at the 8-hour timepoint; tubule number at this point was quantified manually using NIH Image J software. […]
# [3] = Topical lipogel on explanted skin, DESI-Mass spec detection; format: in vitro ADME, mouse; conditions: lipogel applied to freshly explanted skin for 5.5 hrs
# Source text: A lipogel comprising the β3AR agonist Mirabegron was applied to freshly explanted skin for 5.5 hrs. Skin was then snap frozen in liquid nitrogen and cryosectioned at 40 μum thickness.
# DESI-Mass spec was then used to scan the tissue at 30 μm resolution. Tissue image was constructed using mass signal 284 which was presented in high quantity throughout the tissue. Mirabegron was detected using mass signal 397 and overlayed onto the tissue image. The same slide used for DESI-Mass spec was subsequently stained with H&E.
# HUVECs [4] = assay: Scratch migration assay in HUVECs with Mirabegron; format: cell-based, human; conditions: 0.85-850 nM, over 15 hours, between concentrations
# Method: (§3) For assessing the effect of Mirabegron on cell migration: Human umbilical vein endothelial cells (HUVECs; Lonza, C2519AS) were cultured in Endothelial Cell Growth Media containing 2% fetal bovine serum (EGM2) (Lonza, CC-3162) at standard conditions of 37° C. and 5% C02 (SC). Human dermal microvascular diabetic and non-diabetic endothelial cells (db-HMVECs and HMVECs: Lonza, CC2930 and CC2543 respectively) were cultured in Microvascular Endothelial Growth Media containing 2% fetal bovine serum (FBS) (EGM-2MV) (Lonza, CC-3202) at ST. Cells were between passage 4 and 7 when used.
# To first investigate whether the role that β3AR activation plays in endothelial cell migration was dose dependant, the inventors measured migration of HUVECs in media with multiple concentrations of Mirabegron (0.85, 8.5, 85 & 850 nM) using a scratch migration assay.
# diabetic HMVECs = assay: Scratch migration assay in diabetic HMVECs with Mirabegron; format: cell-based, human; conditions: 85 nM, 4.5 hours, vs control
# Method: as §3
# To investigate the potential for Mirabegron to improve migration by reversing oxidative stress, diabetic and non-diabetic HMVECs were used in a scratch migration assay. 85 nM of Mirabegron was used with a control on both cell types.
# C57BL6 mice = assay: Splinted wound healing model in STZ-diabetic male mice; format: in vivo, mouse
# Method: 8-week-old C57BL6 mice were purchased from Animal Resources Centre (Murdoch, WA) and acclimatised to the Kearns Facility over a 1-week period. Mice were group housed (5/cage) within a Physical Containment Level 2 laboratory and were allowed food and water ad libitum. After acclimatisation, 60 mice were weighed daily and given five consecutive daily intraperitoneal injections of Streptozotocin (STZ) solution (55 mg/kg/day) dissolved in sodium citrate (0.1 M) using a standard insulin needle (30 gauge). After the final injection, mice were weighed and blood glucose level (BGL) measured weekly by pricking the most distal point on the tail with a needle to obtain a blood drop, used with an AccuCheck BGL monitor. Mice became become diabetic over 4 weeks post-STZ, as confirmed with a consistent BGL of 15 mmol/L and if greater than 10% weight loss was observed, insulin was delivered via intraperitoneal injection (1 IU in saline). 4 mice were excluded due to severe weight loss during diabetes induction that exceeded ethical protocols. […] Wounds were measured daily for 12 days by removing opsite covering and using digital callipers to measure wound diameter across 3 axes which were averaged and used to calculate circular wound area. […] As such, wound data from 2 mice in topical group were not recorded following day 8 due to splint detachment. […]
# [5] = system: human adult dermal microvascular endothelial cells (MVEC); assay: Tubule formation in human adult dermal microvascular endothelial cells; format: cell-based; conditions: β3AR antagonist 1 μmol/L with CL 316,243 100 ng/ml
# Method: as §1, §2
# Chain of β3-AR (P13945 whole entry): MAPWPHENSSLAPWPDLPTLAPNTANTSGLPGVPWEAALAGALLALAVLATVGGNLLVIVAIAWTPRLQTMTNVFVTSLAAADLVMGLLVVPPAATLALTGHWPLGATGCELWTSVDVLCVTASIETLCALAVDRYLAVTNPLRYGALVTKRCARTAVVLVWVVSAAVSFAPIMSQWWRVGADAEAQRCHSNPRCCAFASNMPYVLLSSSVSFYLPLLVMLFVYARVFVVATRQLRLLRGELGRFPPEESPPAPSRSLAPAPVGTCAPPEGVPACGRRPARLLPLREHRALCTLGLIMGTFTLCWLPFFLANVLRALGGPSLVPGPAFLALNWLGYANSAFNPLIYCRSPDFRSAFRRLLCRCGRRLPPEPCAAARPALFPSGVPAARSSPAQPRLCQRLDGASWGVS
smiles,measurement,setting,value
CC(C)(C)NCC(O)COc1cccc2[nH]c(=O)[nH]c12 (stereo not shown) [CGP12177A],agonist activity at β3-AR,β3-AR,partial agonist activity
"COC(=O)[C@@H](N)CCCNC(=N)N[N+](=O)[O-] [L-NAME, Nω-nitro-L-arginine methyl ester]",effect on β3AR-stimulated cell migration rate in HUVECs,HUVECs [1],abolished
same,effect on β3AR-stimulated tubule formation in HUVECs,HUVECs [2],abolished
"Nc1nc(CC(=O)Nc2ccc(CCNC[C@H](O)c3ccccc3)cc2)cs1 [Mirabegron, 2-(2-Amino-1,3-thiazol-4-yl)-N-[4-(2-{[(2R)-2-hydroxy-2-phenylethyl]amino}ethyl)phenyl]acetamide]",absorption into skin tissue (DESI-Mass spec signal 397),[3],detected in the tissue; also recorded: deliver through to the dermis
same,migration of HUVECs,HUVECs [4],No significant difference; also recorded: no impact
same,migration of diabetic HMVECs,diabetic HMVECs,improved the migration; also recorded: seemed to improve the migration; also recorded: improves migration
same,wound healing (wound closure over time),"C57BL6 mice; topical lipogel daily, 12 days, vs vehicle lipogel, p=0.009",Significant improvement
same,wound healing at day 2,"C57BL6 mice; topical, day 2, n=14, p=0.0238",significant improvement
same,affinity and potency at β3-AR,β3-AR,high affinity and potency
CCc1ccccc1OC[C@@H](O)CN[C@H]1CCCc2ccccc21.O=C(O)C(=O)O [SR 592230A],"effect on CL 316,243-induced tubule formation",[5],abolished
CC(C)(Cc1c[nH]c2ccccc12)NCC(O)COc1ccccc1C#N (stereo not shown) [bucindolol],agonist activity at β3-AR,β3-AR,partial agonist activity
CC(C)(C)NCC(O)COc1cccc2c1CC(O)C(O)C2 (stereo not shown) [nadolol],affinity at β3-AR,β3-AR; β-AR antagonists,atypically low affinity
CC(C)NCC(O)COc1cccc2[nH]ccc12 (stereo not shown) [pindolol],agonist activity at β3-AR,β3-AR,partial agonist activity
Cc1cc(OCC(=O)O)c(C)cc1CCN[C@@H](C)[C@H](O)c1ccc(O)cc1 [ritobegron],affinity and potency at β3-AR,β3-AR,high affinity and potency
O=C(O)c1cccc(-c2cccc(NCCNC[C@H](O)c3cccc(Cl)c3)c2)c1 [solabegron],affinity and potency at β3-AR,β3-AR,high affinity and potency
O=C(Nc1ccc(C[C@@H]2CC[C@H]([C@H](O)c3ccccc3)N2)cc1)[C@@H]1CCc2nccc(=O)n21 [vibegron],affinity and potency at β3-AR,β3-AR,high affinity and potency
